Laboratory results from publication PMC11882969 (Nature Communications, 2025).
Values joined by “and” are separate entries in the source; they are usually repeats but may differ in a detail not shown here. Equal values may be shown once.

Molecular target: hCB1 (Homo sapiens, UniProt P21554)
Assay: bioSensAll ebBRET signaling profiling, hCB1
Format: cell-based
Parameters: host or cells: HEK293SL cells, transient PEI transfection
Conditions: for Gi1 hCB1 response: Gi1 biosensor; for Gi1 hCB1 / GoB hCB1: single replicate values, FigS6a

hCB1, sequence (P21554 whole entry): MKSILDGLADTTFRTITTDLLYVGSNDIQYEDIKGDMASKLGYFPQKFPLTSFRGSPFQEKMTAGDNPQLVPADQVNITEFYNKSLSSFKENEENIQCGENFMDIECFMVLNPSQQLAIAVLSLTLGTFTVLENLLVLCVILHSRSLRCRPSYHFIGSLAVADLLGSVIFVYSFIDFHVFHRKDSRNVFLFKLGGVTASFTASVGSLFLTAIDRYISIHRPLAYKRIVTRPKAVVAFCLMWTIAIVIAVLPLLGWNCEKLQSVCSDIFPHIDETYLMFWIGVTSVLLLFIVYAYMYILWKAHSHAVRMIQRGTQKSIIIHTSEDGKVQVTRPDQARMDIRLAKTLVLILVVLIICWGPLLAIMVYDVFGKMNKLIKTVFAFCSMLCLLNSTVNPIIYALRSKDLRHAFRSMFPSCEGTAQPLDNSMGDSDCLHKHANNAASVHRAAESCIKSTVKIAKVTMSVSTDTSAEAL

COC(=O)[C@@H]1[C@@H]2CCC[C@@H]2CN1C(=O)c1cc(C)n(-c2cccc(C(F)(F)F)c2)n1 [‘6439]
Gi1 hCB1 response (Log [Compound] (M) -4.22186): 151.018
Gi1 hCB1 response (Log [Compound] (M) -4.63927): 115.678
Gi1 hCB1 response (Log [Compound] (M) -5.05788): 127.496
Gi1 hCB1 response (Log [Compound] (M) -5.47381): 106.412
Gi1 hCB1 response (Log [Compound] (M) -5.89285): 85.038
Gi1 hCB1 response (Log [Compound] (M) -6.31878): 82.8446
Gi1 hCB1 response (Log [Compound] (M) -6.72585): 60.217
Gi1 hCB1 response (Log [Compound] (M) -7.14267): 58.225
Gi1 hCB1 response (Log [Compound] (M) -7.55284): 19.617
Gi1 hCB1 response (Log [Compound] (M) -8): 16.8865
Gi1 hCB1 response (Log [Compound] (M) -8.22186): 14.8945
Gi1 hCB1 response (Log [Compound] (M) -8.39794): 2.361
Gi1 hCB1 response (Log [Compound] (M) -8.68787): 6.703
Gi1 hCB1 response (Log [Compound] (M) -9.15521): 0.8614
Gi1 hCB1 response (Log [Compound] (M) -9.61989): -7.912
Gi1 hCB1 response (Log [Compound] (M) -10.0969): -33.897
Gi1 hCB1 response (Log [Compound] (M) -10.5529): -6.905
Gi1 hCB1 response (Log [Compound] (M) -11.0177): 0.7271
Gi1 hCB1 response (Log [Compound] (M) -11.4949): -12.7913
Gi1 hCB1 response (Log [Compound] (M) -11.9208): -11.6498
Gi1 hCB1 response (Log [Compound] (M) -12.3979): -8.158
Gi1 hCB1 response (Log [Compound] (M) -12.8861): -13.8656
Gi1 hCB1 response (Log [Compound] (M) -13, individual replicate values): 6.815 and -3.369
Gi1 hCB1 (Log [Compound] (M) -4.22186): 102.871
GoB hCB1 (Log [Compound] (M) -4.22186): 99.959
Gi1 hCB1 (Log [Compound] (M) -4.63927): 91.1085
GoB hCB1 (Log [Compound] (M) -4.63927): 101.488
Gi1 hCB1 (Log [Compound] (M) -5.05788): 91.2935
GoB hCB1 (Log [Compound] (M) -5.05788): 96.0026
Gi1 hCB1 (Log [Compound] (M) -5.47381): 93.4364
GoB hCB1 (Log [Compound] (M) -5.47381): 100.139
Gi1 hCB1 (Log [Compound] (M) -5.89285): 89.3202
GoB hCB1 (Log [Compound] (M) -5.89285): 94.2762
Gi1 hCB1 (Log [Compound] (M) -6.31878): 88.4414
GoB hCB1 (Log [Compound] (M) -6.31878): 89.4207
Gi1 hCB1 (Log [Compound] (M) -6.72585): 73.3178
GoB hCB1 (Log [Compound] (M) -6.72585): 75.088
Gi1 hCB1 (Log [Compound] (M) -7.14267): 49.9
GoB hCB1 (Log [Compound] (M) -7.14267): 54.2273
Gi1 hCB1 (Log [Compound] (M) -7.55284): 26.2355
GoB hCB1 (Log [Compound] (M) -7.55284): 30.9029
Gi1 hCB1 (Log [Compound] (M) -8): 8.645
GoB hCB1 (Log [Compound] (M) -8): 13.9266
Gi1 hCB1 (Log [Compound] (M) -8.22186): 5.331
GoB hCB1 (Log [Compound] (M) -8.22186): 0.7628
Gi1 hCB1 (Log [Compound] (M) -8.39794): 4.128
GoB hCB1 (Log [Compound] (M) -8.39794): 8.262
Gi1 hCB1 (Log [Compound] (M) -8.68787): 4.853
GoB hCB1 (Log [Compound] (M) -8.68787): -0.2442
Gi1 hCB1 (Log [Compound] (M) -9.15521): 1.029
GoB hCB1 (Log [Compound] (M) -9.15521): -1.989
Gi1 hCB1 (Log [Compound] (M) -9.61989): 0.2894
GoB hCB1 (Log [Compound] (M) -9.61989): -0.46
Gi1 hCB1 (Log [Compound] (M) -10.0969): -1.6068
GoB hCB1 (Log [Compound] (M) -10.0969): -4.219
Gi1 hCB1 (Log [Compound] (M) -10.5529): 0.5669
GoB hCB1 (Log [Compound] (M) -10.5529): -0.6758
